Experimental data: PMC8878047 (Pharmaceutics, 2022)
Read-outs that look alike come from different tables or passages of the source.

Columns and labels:
[1] = test system: wild type AB strain zebrafish; settings: for statistical survival of the tested zebrafish / statistical death of the tested zebrafish: 30 embryos per well
Experimental: Zebrafish were incubated and grown in the Joint Laboratory established by Shandong Rui’ying Pharmaceutical Group (Heze, China) and China Pharmaceutical University. Both the Wild-type AB (Danio rerio) and Tg(mpx:eGFP) zebrafish strains were maintained under the guidance of the standard procedures of The Zebrafish Book. […] Then the zebrafish were allowed to naturally mate and spawn the next morning. The normally born embryos were then collected after 1 h and kept in an incubating system at 28 °C. The 6 hpf (hour post fertilization) embryos were transferred into a 6-well plate exposed to 5 mL of egg water, in which 30 embryos were in each well.

[2] = test system: neutrophil cluster aggregation; test: CuSO4-induced inflammation model in Tg(mpx:eGFP) zebrafish; settings: 10 μM CuSO4 40 min, Tg(mpx:eGFP) 3 dpf
[3] = test system: H2O2-induced ROS production; test: H2O2-induced oxidative stress model in zebrafish (DCFH-DA); settings: 48 h pre-treatment, H2O2 1.0 mM 4 h, H2O2-induced 17,250, control 590
[4] = Pharmacokinetic study in plasma after oral administration (HPLC-MS); settings: SD rats, EFX 10 mg/kg, EFX-Ca 12 mg/kg
[5] = test system: E. coli; test: Quasi-clinical trial on E. coli-infected AA broilers (drug-mixed feeding); settings: for Average Final Weight / Average Weight Gain / Average Increment of Weight / Cure Rate (%) / Survival Number: AA broilers; for Average Weight Gain: Table 7; for Average Increment of Weight: Table 8; for Cure Rate (%) / Survival Number: 6 d; for Survival Number: 50 per group
Experimental: (§1) Then, broilers were randomly and equally divided into five different groups and marked as five groups. […] Note that the daily drug-mixed feeding ratio (g drug/kg feed) was indicated for the first 4 h every day, and unmedicated feed then followed. In addition, E. coli strains for the infection of chicken was supplied as a freeze-dried powder. They were revived and cultured according to the standard procedures. The strain was inoculated into a liquid medium and cultured in a 37 °C incubator for 6–8 h. We detected the concentration of the bacterial liquid to be 2.8 × 10^8 CFU/mL as the pathogenic concentration. Finally, all of the chickens except the healthy control group were intramuscularly injected with 0.5 mL of pathogenic bacteria, and all chickens were fasted for 4 h. After successfully simulating the bacterial infection of the chickens, the drug-mixed feeding chickens were continuously fed for 6 d. During this time, we observed their behavioral habits, mortality, and recovery rates.

[6] = test system: E. coli; test: Quasi-clinical trial on E. coli-infected 817 broilers (drug-mixed feeding); settings: for Average Final Weight / Average Weight Gain / Average Increment of Weight / Cure Rate (%) / Survival Number: 817 broilers; for Average Weight Gain: Table 7; for Average Increment of Weight: Table 8; for Cure Rate (%) / Survival Number: 6 d; for Survival Number: 50 per group
Experimental: as §1

[7] = EFX-Ca High 14 g drug (5% solution) + 1.5 kg feed/4 h
[8] = EFX-Ca Low 6 g drug (5% solution) + 1.5 kg feed/4 h
[9] = EFX-Ca Medium 9 g + 1.5 kg feed
[10] = EFX-Ca Medium 9 g drug (5% solution) + 1.5 kg feed/4 h
[11] = EFX-Ca High 14 g + 0.75 kg feed
[12] = EFX-Ca High 14 g drug (5% solution) + 0.75 kg feed/4 h
[13] = EFX-Ca Low 6 g drug (5% solution) + 0.75 kg feed/4 h
[14] = EFX-Ca Medium 9 g + 0.75 kg feed
[15] = EFX-Ca Medium 9 g drug (5% solution) + 0.75 kg feed/4 h

What does the source list for `CCN1CCN(c2cc3c(cc2F)c(=O)c(C(=O)[O-])cn3C2CC2)CC1.CCN1CCN(c2cc3c(cc2F)c(=O)c(C(=O)[O-])cn3C2CC2)CC1.O.O.O.O.[Ca+2]` [EFX-Ca, [Ca(EFX)2(H2O)4]·H2O]?
statistical survival of the tested zebrafish ([1]; 10 μM medicated bath, 96 hpf): 26; statistical death of the tested zebrafish ([1]; 10 μM medicated bath, 120 hpf): 4; statistical survival of the tested zebrafish ([1]; 10 μM medicated bath, 120 hpf): 26; statistical death of the tested zebrafish ([1]; 20 μM medicated bath, 24 hpf): 0; statistical survival of the tested zebrafish ([1]; 20 μM medicated bath, 24 hpf): 30; statistical death of the tested zebrafish ([1]; 20 μM medicated bath, 48 hpf): 0; statistical survival of the tested zebrafish ([1]; 20 μM medicated bath, 48 hpf): 30; statistical death of the tested zebrafish ([1]; 20 μM medicated bath, 72 hpf): 0; statistical survival of the tested zebrafish ([1]; 20 μM medicated bath, 72 hpf): 30; statistical death of the tested zebrafish ([1]; 20 μM medicated bath, 96 hpf): 0; statistical survival of the tested zebrafish ([1]; 20 μM medicated bath, 96 hpf): 30; statistical death of the tested zebrafish ([1]; 20 μM medicated bath, 120 hpf): 0; statistical survival of the tested zebrafish ([1]; 20 μM medicated bath, 120 hpf): 30; physiological abnormalities of zebrafish ([1]; full-range concentration 0.01 to 20 μM, 24 to 120 hpf): no obvious physiological abnormalities; CuSO4-induced neutrophil aggregation ([2]; 0.1 μM pre-incubation 1 h): significantly dispersed; CuSO4-induced neutrophil aggregation ([2]; 1 μM pre-incubation 1 h): the neutrophil aggregation was more effectively inhibited; Average IOD (integrated optical density) of green fluorescence ([3]; 0.01 μM): 1060 a.u.; Average IOD (integrated optical density) of green fluorescence ([3]; 0.1 μM): 721 a.u.; Average IOD (integrated optical density) of green fluorescence ([3]; 1 μM): 863 a.u.; Ke ([4]; plasma): 0.16; Tmax ([4]; plasma): 0.75 H; Vd ([4]; plasma): 0.26744 L/kg; t 1/2β ([4]; plasma): 4.41 H; concentration at 0 h ([4]; male, SD, rat, in vivo, Drug concentration in plasma, 0 h): 80 ng/mL; concentration at 0.083 h ([4]; male, SD, rat, in vivo, Drug concentration in plasma, 0.083 h): 860 ng/mL; concentration at 0.333 h ([4]; male, SD, rat, in vivo, Drug concentration in plasma, 0.333 h): 840 ng/mL; concentration at 0.5 h ([4]; male, SD, rat, in vivo, Drug concentration in plasma, 0.5 h): 1690 ng/mL; concentration at 0.75 h ([4]; male, SD, rat, in vivo, Drug concentration in plasma, 0.75 h): 1920 ng/mL; concentration at 1 h ([4]; male, SD, rat, in vivo, Drug concentration in plasma, 1 h): 1390 ng/mL; concentration at 3 h ([4]; male, SD, rat, in vivo, Drug concentration in plasma, 3 h): 770 ng/mL; concentration at 4 h ([4]; male, SD, rat, in vivo, Drug concentration in plasma, 4 h): 700 ng/mL; concentration at 6 h ([4]; male, SD, rat, in vivo, Drug concentration in plasma, 6 h): 580 ng/mL; concentration at 8 h ([4]; male, SD, rat, in vivo, Drug concentration in plasma, 8 h): 480 ng/mL; concentration at 10 h ([4]; male, SD, rat, in vivo, Drug concentration in plasma, 10 h): 100 ng/mL; concentration at 12 h ([4]; male, SD, rat, in vivo, Drug concentration in plasma, 12 h): 140 ng/mL; concentration at 24 h ([4]; male, SD, rat, in vivo, Drug concentration in plasma, 24 h): 90 ng/mL; Average Final Weight ([5]; EFX-Ca High 14 g + 1.5 kg feed): 1750 ± 125 g; Average Weight Gain ([5]; EFX-Ca High 14 g + 1.5 kg feed): 250; Average Increment of Weight ([5]; EFX-Ca High 14 g + 1.5 kg feed): 230 g; Cure Rate (%) [5, 7]: 60%; Survival Number [5, 7]: 30; Average Final Weight ([5]; EFX-Ca Low 6 g + 1.5 kg feed): 1690 ± 95 g; Average Weight Gain ([5]; EFX-Ca Low 6 g + 1.5 kg feed): 190; Average Increment of Weight ([5]; EFX-Ca Low 6 g + 1.5 kg feed): 190 g; Cure Rate (%) [5, 8]: 54%; Survival Number [5, 8]: 27; Average Final Weight [5, 9]: 1640 ± 73 g; Average Weight Gain [5, 9]: 140; Average Increment of Weight [5, 9]: 280 g; Cure Rate (%) [5, 10]: 78%; Survival Number [5, 10]: 39; highest cure rate, higher than the EFX dose group by ([5]; AA infected chickens, EFX-Ca medium dose vs EFX): 25.8%; Average Final Weight [6, 11]: 1000 ± 51 g; Average Weight Gain [6, 11]: 70; Average Increment of Weight [6, 11]: 80 g; Cure Rate (%) [6, 12]: 58%; Survival Number [6, 12]: 29; Average Final Weight ([6]; EFX-Ca Low 6 g + 0.75 kg feed): 1210 ± 67 g; Average Weight Gain ([6]; EFX-Ca Low 6 g + 0.75 kg feed): 280; Average Increment of Weight ([6]; EFX-Ca Low 6 g + 0.75 kg feed): 260 g; Cure Rate (%) [6, 13]: 88%; Survival Number [6, 13]: 44; Average Final Weight [6, 14]: 1010 ± 61 g; Average Weight Gain [6, 14]: 80; Average Increment of Weight [6, 14]: 140 g; Cure Rate (%) [6, 15]: 80%; Survival Number [6, 15]: 40; highest cure rate, higher than the EFX dose group by ([6]; 817 infected chickens, EFX-Ca low dose vs EFX): 37.5%
